Assay [1] concerns Bone-marrow-derived macrophages. The assay can be described thus: Markers of alternatively activated macrophages (qPCR). Type of assay: cell-based, mouse. The note with it: 3 μM bosutinib or 0.3 μM dasatinib 1 h, then LPS. The protocol:
mRNA was extracted from cells using the MicroElute Total RNA kit following the manufacturers’ instructions (Omega Bio-Tek). cDNA was generated from 0.5 μg of total RNA using the iScript cDNA synthesis kit and quantified by quantitative real-time PCR (qPCR) using the SsoFast EvaGreen Supermix on a CFX384 real-time system (Bio-Rad Laboratories). The relative expression of each gene was calculated from CT values using the Pfaffl method and was normalized against the mRNA levels of housekeeping genes including 18S RNA and GAPDH. Results are reported relative to untreated control cells, which were set to 1.

The target in the next assay is T1, CHK1 (Homo sapiens, UniProt O14757).
T1 sequence (O14757 1-476): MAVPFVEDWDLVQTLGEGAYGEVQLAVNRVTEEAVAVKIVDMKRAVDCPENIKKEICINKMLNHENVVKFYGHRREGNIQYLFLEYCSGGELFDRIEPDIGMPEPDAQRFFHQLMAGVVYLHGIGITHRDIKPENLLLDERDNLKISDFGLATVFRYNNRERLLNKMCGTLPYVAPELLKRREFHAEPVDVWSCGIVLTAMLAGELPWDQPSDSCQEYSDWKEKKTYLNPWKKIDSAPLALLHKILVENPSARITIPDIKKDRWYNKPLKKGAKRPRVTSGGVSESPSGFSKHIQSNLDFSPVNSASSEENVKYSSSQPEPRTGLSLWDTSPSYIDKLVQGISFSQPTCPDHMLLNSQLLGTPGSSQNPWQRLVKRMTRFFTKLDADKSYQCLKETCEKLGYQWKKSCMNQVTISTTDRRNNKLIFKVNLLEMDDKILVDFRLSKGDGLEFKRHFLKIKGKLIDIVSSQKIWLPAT
The assay can be described thus: Kinase profiling. Type of assay: biochemical.

For the next assay, the target named is HER4 (Homo sapiens, UniProt Q15303). The assay can be described thus: Kinase profiling. Type of assay: biochemical.
HER4, sequence (Q15303 26-1308): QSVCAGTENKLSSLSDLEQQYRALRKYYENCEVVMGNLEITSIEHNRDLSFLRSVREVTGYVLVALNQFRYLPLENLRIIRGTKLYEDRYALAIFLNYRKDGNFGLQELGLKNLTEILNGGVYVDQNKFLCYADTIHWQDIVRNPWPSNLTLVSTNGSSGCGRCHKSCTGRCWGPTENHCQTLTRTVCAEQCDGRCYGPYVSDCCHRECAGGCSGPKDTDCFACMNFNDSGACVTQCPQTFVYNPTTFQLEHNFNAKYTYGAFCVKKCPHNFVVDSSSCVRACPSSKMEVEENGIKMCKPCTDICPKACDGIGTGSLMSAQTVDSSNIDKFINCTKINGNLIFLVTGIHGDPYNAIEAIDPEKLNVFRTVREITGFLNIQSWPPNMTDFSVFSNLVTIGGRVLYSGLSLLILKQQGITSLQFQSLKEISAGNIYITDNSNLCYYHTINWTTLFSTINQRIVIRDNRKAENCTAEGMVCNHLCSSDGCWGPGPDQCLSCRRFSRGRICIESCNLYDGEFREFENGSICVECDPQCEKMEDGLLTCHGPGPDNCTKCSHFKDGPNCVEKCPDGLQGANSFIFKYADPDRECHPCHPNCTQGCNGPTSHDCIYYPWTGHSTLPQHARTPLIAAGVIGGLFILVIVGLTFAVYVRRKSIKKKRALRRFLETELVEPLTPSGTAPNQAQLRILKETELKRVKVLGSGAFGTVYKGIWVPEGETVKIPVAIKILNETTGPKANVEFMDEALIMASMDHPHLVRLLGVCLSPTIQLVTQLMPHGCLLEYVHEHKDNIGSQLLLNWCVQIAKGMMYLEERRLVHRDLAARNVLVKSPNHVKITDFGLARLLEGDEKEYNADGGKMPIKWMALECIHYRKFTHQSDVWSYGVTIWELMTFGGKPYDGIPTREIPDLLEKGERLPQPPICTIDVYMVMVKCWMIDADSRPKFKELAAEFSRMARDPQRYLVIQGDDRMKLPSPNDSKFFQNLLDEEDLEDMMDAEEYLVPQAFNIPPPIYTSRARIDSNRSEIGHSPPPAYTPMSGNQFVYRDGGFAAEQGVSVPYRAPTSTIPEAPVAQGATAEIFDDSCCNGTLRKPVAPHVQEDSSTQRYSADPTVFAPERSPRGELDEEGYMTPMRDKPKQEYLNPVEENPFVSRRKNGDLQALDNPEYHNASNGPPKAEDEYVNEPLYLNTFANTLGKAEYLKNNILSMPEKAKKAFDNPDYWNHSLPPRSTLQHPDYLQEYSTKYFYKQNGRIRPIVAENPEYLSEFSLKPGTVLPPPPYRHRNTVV
In another assay the target is T2, IRAK4 (Homo sapiens, UniProt Q9NWZ3).
T2 sequence (Q9NWZ3 1-460): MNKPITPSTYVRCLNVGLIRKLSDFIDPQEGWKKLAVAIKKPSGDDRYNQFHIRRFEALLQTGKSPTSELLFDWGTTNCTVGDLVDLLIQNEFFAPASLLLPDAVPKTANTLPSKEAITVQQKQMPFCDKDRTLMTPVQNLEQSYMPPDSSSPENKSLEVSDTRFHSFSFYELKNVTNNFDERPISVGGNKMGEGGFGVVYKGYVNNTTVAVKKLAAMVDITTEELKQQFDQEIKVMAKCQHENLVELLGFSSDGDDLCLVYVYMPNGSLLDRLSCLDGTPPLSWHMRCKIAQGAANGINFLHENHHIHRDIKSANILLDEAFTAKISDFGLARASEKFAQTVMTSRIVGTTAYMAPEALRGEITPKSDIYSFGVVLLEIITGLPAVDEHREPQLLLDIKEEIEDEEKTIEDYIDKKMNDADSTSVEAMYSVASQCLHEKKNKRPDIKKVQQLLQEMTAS
The assay can be described thus: Kinase profiling. Type of assay: biochemical.

The next assay concerns the target PDGFRA (Homo sapiens, UniProt P16234). The assay can be described thus: Kinase profiling. It is filed as biochemical.
For the next assay, the target named is T3, PKC zeta (Homo sapiens, UniProt Q05513).
T3 sequence (Q05513 1-592): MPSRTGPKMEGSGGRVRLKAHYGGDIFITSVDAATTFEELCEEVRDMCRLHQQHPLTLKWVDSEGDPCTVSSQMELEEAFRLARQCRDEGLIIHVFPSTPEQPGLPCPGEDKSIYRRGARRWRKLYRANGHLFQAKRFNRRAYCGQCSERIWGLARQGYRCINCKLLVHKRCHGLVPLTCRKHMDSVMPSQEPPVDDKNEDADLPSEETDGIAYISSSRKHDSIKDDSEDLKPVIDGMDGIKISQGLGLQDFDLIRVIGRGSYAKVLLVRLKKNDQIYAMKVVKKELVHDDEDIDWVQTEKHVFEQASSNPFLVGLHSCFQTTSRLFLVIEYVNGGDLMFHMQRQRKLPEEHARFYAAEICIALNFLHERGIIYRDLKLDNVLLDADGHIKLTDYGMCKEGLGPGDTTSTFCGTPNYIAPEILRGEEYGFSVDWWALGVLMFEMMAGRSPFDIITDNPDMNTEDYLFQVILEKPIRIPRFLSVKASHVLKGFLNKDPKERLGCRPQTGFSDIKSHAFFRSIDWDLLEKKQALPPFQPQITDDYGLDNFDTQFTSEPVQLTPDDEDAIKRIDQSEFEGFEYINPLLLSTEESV
The assay can be described thus: Kinase profiling. Type of assay: biochemical.

The target of a further assay is RIPK2 (Homo sapiens, UniProt O43353). The assay can be described thus: Kinase profiling. It is filed as biochemical.
RIPK2, sequence (O43353 whole entry): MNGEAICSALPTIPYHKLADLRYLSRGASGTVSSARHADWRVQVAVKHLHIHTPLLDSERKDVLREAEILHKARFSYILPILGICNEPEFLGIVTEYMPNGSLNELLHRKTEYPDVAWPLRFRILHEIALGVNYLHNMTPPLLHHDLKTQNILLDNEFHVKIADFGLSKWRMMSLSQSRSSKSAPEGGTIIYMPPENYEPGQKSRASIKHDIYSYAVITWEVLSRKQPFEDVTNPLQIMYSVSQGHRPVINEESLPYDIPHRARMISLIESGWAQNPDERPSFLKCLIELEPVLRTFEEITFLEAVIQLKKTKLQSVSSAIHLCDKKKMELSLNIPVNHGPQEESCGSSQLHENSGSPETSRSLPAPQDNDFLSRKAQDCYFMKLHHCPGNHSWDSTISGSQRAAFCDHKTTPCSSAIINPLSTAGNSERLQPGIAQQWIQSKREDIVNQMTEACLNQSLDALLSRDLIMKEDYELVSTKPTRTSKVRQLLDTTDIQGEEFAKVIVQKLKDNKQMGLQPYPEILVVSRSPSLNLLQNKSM
A further assay addresses S6K1 (Homo sapiens, UniProt P23443). Kind of assay: Kinase profiling. It is filed as biochemical.
A further assay concerns the target SIK2 (Homo sapiens, UniProt Q9H0K1). The assay can be described thus: Kinase profiling. Type of assay: biochemical.
In a further assay the target is T4, TSSK1 (Homo sapiens, UniProt Q9BXA7).
T4 sequence (Q9BXA7 1-367): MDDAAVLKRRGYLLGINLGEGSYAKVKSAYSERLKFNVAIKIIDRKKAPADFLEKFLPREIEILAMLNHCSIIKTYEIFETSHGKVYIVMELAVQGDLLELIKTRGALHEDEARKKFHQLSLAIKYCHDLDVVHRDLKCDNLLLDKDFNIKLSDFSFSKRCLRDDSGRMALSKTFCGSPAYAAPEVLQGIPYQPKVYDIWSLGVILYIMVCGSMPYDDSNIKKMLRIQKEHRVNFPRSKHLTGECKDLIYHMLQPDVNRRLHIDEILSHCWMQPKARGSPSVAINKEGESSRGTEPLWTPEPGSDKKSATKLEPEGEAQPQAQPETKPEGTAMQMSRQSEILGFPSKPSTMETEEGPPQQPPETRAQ
The assay can be described thus: Kinase profiling. Type of assay: biochemical.

PDGFRA, sequence (P16234 24-1089): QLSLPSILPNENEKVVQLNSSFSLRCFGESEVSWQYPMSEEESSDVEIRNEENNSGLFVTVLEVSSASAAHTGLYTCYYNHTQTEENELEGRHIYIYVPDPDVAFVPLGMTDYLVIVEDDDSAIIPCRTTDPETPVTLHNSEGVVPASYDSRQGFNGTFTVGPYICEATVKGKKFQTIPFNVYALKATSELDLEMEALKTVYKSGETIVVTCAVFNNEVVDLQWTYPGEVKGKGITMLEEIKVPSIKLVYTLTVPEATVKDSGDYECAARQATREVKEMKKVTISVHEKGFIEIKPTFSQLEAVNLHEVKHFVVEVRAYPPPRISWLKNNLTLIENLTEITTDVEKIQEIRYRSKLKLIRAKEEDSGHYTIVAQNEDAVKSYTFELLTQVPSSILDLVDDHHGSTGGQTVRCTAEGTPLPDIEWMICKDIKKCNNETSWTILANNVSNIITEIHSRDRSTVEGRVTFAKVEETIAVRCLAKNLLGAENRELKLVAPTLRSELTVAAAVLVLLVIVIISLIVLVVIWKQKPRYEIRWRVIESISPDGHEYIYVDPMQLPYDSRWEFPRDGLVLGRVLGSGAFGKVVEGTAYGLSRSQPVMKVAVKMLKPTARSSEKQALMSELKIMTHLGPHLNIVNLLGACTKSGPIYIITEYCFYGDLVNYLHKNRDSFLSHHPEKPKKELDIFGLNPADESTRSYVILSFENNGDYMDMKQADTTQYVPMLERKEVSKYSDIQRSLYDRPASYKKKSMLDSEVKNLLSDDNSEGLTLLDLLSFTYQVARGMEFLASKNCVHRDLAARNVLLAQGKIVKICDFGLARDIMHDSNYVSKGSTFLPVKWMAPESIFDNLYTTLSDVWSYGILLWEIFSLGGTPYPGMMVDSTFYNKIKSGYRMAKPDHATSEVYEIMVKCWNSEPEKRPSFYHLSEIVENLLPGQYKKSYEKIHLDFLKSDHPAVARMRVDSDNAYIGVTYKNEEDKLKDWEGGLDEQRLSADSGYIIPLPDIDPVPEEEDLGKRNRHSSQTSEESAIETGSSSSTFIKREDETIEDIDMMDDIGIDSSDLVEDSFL
S6K1, sequence (P23443 whole entry): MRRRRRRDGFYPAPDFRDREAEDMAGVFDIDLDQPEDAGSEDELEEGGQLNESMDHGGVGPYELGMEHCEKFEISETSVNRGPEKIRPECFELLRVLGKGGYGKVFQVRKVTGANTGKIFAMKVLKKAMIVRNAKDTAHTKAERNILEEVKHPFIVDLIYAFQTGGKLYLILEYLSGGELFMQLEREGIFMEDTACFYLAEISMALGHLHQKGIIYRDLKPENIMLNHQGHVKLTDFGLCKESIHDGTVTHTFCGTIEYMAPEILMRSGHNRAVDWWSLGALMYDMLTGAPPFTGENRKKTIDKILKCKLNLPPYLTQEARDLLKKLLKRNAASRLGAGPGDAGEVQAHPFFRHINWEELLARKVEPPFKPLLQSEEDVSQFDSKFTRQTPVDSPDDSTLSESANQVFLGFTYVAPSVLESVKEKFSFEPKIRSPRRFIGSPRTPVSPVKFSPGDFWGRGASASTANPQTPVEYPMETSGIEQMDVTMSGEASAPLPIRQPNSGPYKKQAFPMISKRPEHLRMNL
SIK2, sequence (Q9H0K1 whole entry): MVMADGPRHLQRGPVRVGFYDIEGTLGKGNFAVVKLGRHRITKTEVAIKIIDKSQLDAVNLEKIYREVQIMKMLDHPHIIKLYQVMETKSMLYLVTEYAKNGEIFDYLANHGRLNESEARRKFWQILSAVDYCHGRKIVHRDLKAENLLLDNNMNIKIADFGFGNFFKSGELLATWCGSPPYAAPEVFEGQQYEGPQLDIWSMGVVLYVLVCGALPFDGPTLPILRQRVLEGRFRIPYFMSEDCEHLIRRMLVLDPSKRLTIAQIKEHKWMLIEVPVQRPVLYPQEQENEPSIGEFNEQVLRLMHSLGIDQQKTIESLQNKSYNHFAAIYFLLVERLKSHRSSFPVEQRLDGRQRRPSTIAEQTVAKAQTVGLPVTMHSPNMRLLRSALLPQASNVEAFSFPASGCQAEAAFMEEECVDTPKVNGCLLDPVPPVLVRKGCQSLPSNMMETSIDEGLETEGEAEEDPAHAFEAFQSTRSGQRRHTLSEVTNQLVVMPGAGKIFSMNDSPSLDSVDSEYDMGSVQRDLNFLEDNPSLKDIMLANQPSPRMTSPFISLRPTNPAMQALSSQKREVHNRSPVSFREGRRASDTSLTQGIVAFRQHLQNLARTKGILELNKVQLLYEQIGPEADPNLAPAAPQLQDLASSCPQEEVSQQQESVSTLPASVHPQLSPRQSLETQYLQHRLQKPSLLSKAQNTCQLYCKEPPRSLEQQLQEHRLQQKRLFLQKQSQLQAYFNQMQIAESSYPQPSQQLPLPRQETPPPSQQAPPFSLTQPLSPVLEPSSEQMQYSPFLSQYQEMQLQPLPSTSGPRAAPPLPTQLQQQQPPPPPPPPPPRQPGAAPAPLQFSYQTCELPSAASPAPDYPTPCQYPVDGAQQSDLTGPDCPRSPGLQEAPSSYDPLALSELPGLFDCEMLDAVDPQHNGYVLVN

Take `COc1cc(Nc2c(C#N)cnc3cc(OCCCN4CCN(C)CC4)c(OC)cc23)c(Cl)cc1Cl` [Bosutinib, bosutinib]: the “Expression of FIZZ, YM1 and Mgl2” value in assay [1] is listed as “without affecting the expression”. The remaining activity at 0.1 µM on CHK1 came to 91 ± 2%; on HER4, 9%; on IRAK4, 55 ± 3%; on PDGFRA it was 96 ± 1%; at PKC zeta, 91 ± 2%; on RIPK2 it was 86 ± 2%. The remaining activity at 0.1 µM at S6K1 came out at 98 ± 1%; on SIK2 it was 8%; on TSSK1 it was 67 ± 1%. For the same compound, the remaining activity at 1 µM turned out to be 57% on CHK1; 1 ± 1% on HER4; 23% at IRAK4; 79% at PDGFRA (1 µM); 102 ± 4% on PKC zeta; 45 ± 1% at RIPK2. The remaining activity at 1 µM was determined as 86 ± 2% on S6K1, 3% at SIK2 and 22 ± 2% on TSSK1.

As to `Cc1nc(Nc2ncc(C(=O)Nc3c(C)cccc3Cl)s2)cc(N2CCN(CCO)CC2)n1` [Dasatinib], the “Expression of FIZZ, YM1 and Mgl2” value in assay [1] was “without affecting the expression”. Moreover, the remaining activity at 0.1 µM on CHK1 was determined as 100 ± 6%; at HER4, 27 ± 1%; at IRAK4, 112 ± 24%; at PDGFRA, 6 ± 1%; on PKC zeta, 101 ± 3%; at RIPK2 it was 5%. The remaining activity at 0.1 µM was determined as 108 ± 3% on S6K1, 4 ± 1% at SIK2 and 106 ± 11% on TSSK1. For the same compound, the remaining activity at 1 µM on CHK1 is 96 ± 6%; at HER4, 6%; on IRAK4 it was 102 ± 6%; at PKC zeta it was 109 ± 7%; on RIPK2, 10 ± 12%; on S6K1 it was 113 ± 11%. For the same compound, the remaining activity at 1 µM at SIK2 amounted to 2 ± 1%; at TSSK1, 113 ± 3%.

The record behind these values is publication PMC4286194 (Biochemical Journal, 2015).
